# Measurements: patent publication US7652022B2, “Diaryl urea derivatives useful for the treatment of protein kinase dependent diseases” (Novartis AG, priority 2002, dated 2010)
# Tests used:
# [1] = biological target: T1, c-Abl kinase (His-tagged kinase domain of c-Abl) (Homo sapiens, UniProt P00519); assay: c-Abl protein-tyrosine kinase in vitro enzyme filter binding assay; type: biochemical; conditions: % inhibition at 10 μM
# T1 construct: The His-tagged kinase domain of c-Abl is cloned and expressed in the baculovirus/Sf9 system; His tag; made in house; host or cells: Sf9 insect cells (baculovirus)
# T1 sequence (P00519 242-493 limits assumed): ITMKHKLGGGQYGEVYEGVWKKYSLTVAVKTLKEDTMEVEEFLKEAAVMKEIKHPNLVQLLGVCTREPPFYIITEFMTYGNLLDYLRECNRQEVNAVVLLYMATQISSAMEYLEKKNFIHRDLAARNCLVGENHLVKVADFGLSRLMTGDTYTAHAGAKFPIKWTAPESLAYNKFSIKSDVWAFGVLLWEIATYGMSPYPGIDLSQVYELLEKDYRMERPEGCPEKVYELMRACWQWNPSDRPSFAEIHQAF
# Method: An in vitro enzyme assay is performed in 96-well plates as a filter binding assay as described by Geissler et al. in Cancer Res. 1992; 52:4492-4498, with the following modifications. The His-tagged kinase domain of c-Abl is cloned and expressed in the baculovirus/Sf9 system as described by Bhat et al. in J. Biol. Chem. 1997; 272:16170-16175. A protein of 37 kD (c-Abl kinase) is purified by a two-step procedure over a Cobalt metal chelate column followed by an anion exchange column with a yield of 1-2 mg/L of Sf9 cells (Bhat et al., reference cited). The purity of the c-Abl kinase is >90% as judged by SDS-PAGE after Coomassie blue staining. The assay contains (total volume of 30 μL): c-Abl kinase (50 ng), 20 mM Tris·HCl, pH 7.5, 10 mM MgCl2, 10 μM Na3VO4, 1 mM DTT and 0.06 μCi/assay [γ^33 P]-ATP (5 μM ATP) using 30 μg/mL poly-Ala,Glu,Lys,Tyr-6:2:5:1 (Poly-AEKY, Sigma P1152) in the presence of 1% DMSO. Reactions are terminated by adding 10 μL of 250 mM EDTA and 30 μL of the reaction mixture is transferred onto Immobilon-PVDF membrane (Millipore, Bedford, Mass., USA) previously soaked for 5 min with methanol, rinsed with water, then soaked for 5 min with 0.5% H3PO4 and mounted on vacuum manifold with disconnected vacuum source. After spotting all samples, vacuum is connected and each well rinsed with 200 μL 0.5% H3PO4. Membranes are removed and washed on a shaker with 0.5% H3PO4 (4 times) and once with ethanol. Membranes are counted after drying at ambient temperature, mounting in Packard TopCount 96-well frame, and addition of 10 μL/well of Microscint™ (Packard).
# Enzymatic (c-Abl, KDR, Flt3) data are given on Table 17 (% inhibition at 10 μM). (Measurements are made as described above in the general description).
# [2] = biological target: T2, human VEGF-R2 receptor (KDR) (Homo sapiens, UniProt P35968); assay: Inhibition of VEGF-induced VEGF-R2 (KDR) autophosphorylation in transfected CHO cells, sandwich ELISA; type: cell-based; conditions: % inhibition at 10 μM
# T2 construct: expressed in transfected cells
# Method: The inhibition of VEGF-induced receptor autophosphorylation can be confirmed with a further in vitro experiments in cells such as transfected CHO cells, which permanently express human VEGF-R2 receptor (KDR), are seeded in complete culture medium (with 10% fetal calf serum=FCS) in 6-well cell-culture plates and incubated at 37° C. under 5% CO2 until they show about 80% confluency. The compounds to be tested are then diluted in culture medium (without FCS, with 0.1% bovine serum albumin) and added to the cells. (Controls comprise medium without test compounds). After two hours of incubation at 37° C., recombinant VEGF is added; the final VEGF concentration is 20 ng/ml. After a further five minutes incubation at 37° C., the cells are washed twice with ice-cold PBS (phosphate-buffered saline) and immediately lysed in 100 μl lysis buffer per well. The lysates are then centrifuged to remove the cell nuclei, and the protein concentrations of the supernatants are determined using a commercial protein assay (BIORAD). The lysates can then either be immediately used or, if necessary, stored at −20° C.
# The plates are then washed and the remaining free protein-binding sites are saturated with 3% TopBlock® (Juro, Cat. # TB232010) in phosphate buffered saline with Tween 20® (polyoxyethylen(20)sorbitane monolaurate, ICI/Uniquema) (PBST). The cell lysates (20 μg protein per well) are then incubated in these plates overnight at 4° C. together with an antiphosphotyrosine antibody coupled with alkaline phosphatase (PY20:AP from Zymed). […] The luminescence is measured in a Packard Top Count Microplate Scintillation Counter. The difference between the signal of the positive control (stimulated with VEGF) and that of the negative control (not stimulated with VEGF) corresponds to VEGF-induced VEGF-R2 phosphorylation (=100%). The activity of the tested substances is calculated as percent inhibition of VEGF-induced VEGF-R2 phosphorylation, wherein the concentration of substance that induces half the maximum inhibition is defined as the IC50 (inhibitory dose for 50% inhibition). […]
# T2 sequence (P35968 20-1356): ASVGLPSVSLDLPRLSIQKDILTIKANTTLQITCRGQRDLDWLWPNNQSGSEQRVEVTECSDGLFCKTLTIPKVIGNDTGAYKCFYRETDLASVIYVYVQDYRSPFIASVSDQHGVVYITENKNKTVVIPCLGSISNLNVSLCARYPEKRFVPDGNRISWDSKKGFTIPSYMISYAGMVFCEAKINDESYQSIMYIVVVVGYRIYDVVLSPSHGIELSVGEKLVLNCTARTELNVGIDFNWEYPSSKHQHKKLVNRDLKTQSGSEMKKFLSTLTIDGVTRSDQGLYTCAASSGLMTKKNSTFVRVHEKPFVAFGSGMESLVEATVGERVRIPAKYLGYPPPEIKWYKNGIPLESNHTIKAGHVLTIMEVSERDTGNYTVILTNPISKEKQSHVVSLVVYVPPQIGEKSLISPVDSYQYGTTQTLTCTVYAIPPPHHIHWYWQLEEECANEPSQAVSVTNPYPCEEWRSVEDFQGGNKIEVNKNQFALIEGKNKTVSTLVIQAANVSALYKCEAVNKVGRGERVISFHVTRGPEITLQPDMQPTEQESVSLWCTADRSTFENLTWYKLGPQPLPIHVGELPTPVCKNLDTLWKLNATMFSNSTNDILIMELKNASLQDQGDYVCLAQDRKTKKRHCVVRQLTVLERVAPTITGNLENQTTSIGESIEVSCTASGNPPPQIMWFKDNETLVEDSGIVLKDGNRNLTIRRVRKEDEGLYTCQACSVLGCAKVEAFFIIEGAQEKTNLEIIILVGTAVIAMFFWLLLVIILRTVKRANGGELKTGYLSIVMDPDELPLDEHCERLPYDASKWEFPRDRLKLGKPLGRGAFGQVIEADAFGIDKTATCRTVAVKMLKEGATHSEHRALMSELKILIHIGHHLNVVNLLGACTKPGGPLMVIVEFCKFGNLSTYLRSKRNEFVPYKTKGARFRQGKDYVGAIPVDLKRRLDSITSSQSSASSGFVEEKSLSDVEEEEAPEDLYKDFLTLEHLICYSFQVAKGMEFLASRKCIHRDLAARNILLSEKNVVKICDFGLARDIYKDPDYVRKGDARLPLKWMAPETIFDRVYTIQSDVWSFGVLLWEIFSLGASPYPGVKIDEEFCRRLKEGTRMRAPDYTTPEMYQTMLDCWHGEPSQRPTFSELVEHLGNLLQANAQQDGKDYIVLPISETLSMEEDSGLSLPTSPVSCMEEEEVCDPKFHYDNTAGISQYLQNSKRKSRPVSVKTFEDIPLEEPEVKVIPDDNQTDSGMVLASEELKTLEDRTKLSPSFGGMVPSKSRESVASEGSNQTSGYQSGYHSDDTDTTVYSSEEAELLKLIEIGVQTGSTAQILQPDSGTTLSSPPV
melting point,c-Abl (% at 10 μM) [1],KDR trans (% at 10 μM) [2],Compound
166.5 to 168 °C,62%,100%,"CCc1ccc(NC(=O)Nc2ccc(Oc3ccncc3)cc2)cc1 [Example 1, N-(4-pyridin-4-yl-oxy-phenyl)-N′-(4-ethyl-phenyl)-urea]"
,84%,99%,O=C(Nc1ccc(Oc2ccncc2)cc1)Nc1cccc(C(F)(F)F)c1 [Example 2]
,58%,25%,CCCc1ccc(NC(=O)Nc2ccc(Oc3ccncc3)cc2)cc1 [Example 3]
142 °C (dec.),,,"O=C(Nc1ccc(Oc2cc(Nc3ccc(O)cc3)ncn2)cc1)Nc1cccc(C(F)(F)F)c1 [Example 22, N-(4-(4-(4-hydroxyphenylamino)-pyrimidin-6-yl)-oxyphenyl)-N′-(3-trifluoromethylphenyl)-urea]"
162.5 to 164.5 °C,,,"COc1cc(NC(=O)Nc2ccc(Oc3ccncc3)cc2)cc(C(F)(F)F)c1 [Example 37, 1-(3-Methoxy-5-trifluoromethyl-phenyl)-3-[4-(pyridin-4-yloxy)-phenyl]-urea]"
60 °C (dec.),,,CCN(CC)c1ccc(NC(=O)Nc2ccc(Oc3ccncc3)cc2)cc1C(F)(F)F [Example 39]
149 °C (dec.),,,"Cc1ccc(NC(=O)Nc2ccc(Oc3ccncc3)cc2)cc1C(F)(F)F [Example 43, 1-(4-Methyl-3-trifluoromethyl-phenyl)-3-[4-(pyridin-4-yloxy)-phenyl]-urea]"
202 to 203 °C (dec.),,,CNc1cc(Oc2ccc(NC(=O)Nc3ccc(C)c(C(F)(F)F)c3)cc2)ncn1 [Example 67]
183 to 184.5 °C,,,"Cc1ccc(NC(=O)Nc2ccc(Oc3cc(Cl)ncn3)cc2)cc1C(F)(F)F [Example 76, 1-[4-(6-Chloro-pyrimidin-4-yloxy)-phenyl]-3-(4-methyl-3-trifluoromethyl-phenyl)-urea]"
217 to 219 °C,,,"Cc1ccc(NC(=O)Nc2ccc(Oc3cc(Cl)ncn3)cc2)cc1 [Example 97, 1-[4-(6-Chloro-pyrimidin-4-yloxy)-phenyl]-3-p-tolyl-urea]"
160 to 162 °C,,,"CCc1cc(Oc2ccc(NC(=O)Nc3ccc(C)cc3)cc2)ncn1 [Example 99, 1-[4-(6-Ethyl-pyrimidin-4-yloxy)phenyl]-3-p-tolyl-urea]"
168 to 169 °C,,,"CCN1CCN(Cc2cc(NC(=O)Nc3ccc(Oc4cc(Cl)ncn4)cc3)cc(C(F)(F)F)c2)CC1 [Example 134, N-(4-(6-Chloropyrimidin-4-yl-oxy)-phenyl)-N′-{5-trifluoromethyl-3-[(4-ethylpiperazin-1-ylmethyl)]-phenyl}-urea]"
154 °C,,,"CN(C)Cc1cc(NC(=O)Nc2ccc(Oc3cc(Cl)ncn3)cc2)cc(C(F)(F)F)c1 [Example 135, N-(4-(6-Chloropyrimidin-4-yl-oxy)-phenyl)-N′-[5-trifluoromethyl-3-(dimethylamino-methyl)-phenyl]-urea]"
181 °C,,,"O=C(Nc1cccc(C(F)(F)F)c1)N1CCc2cc(Oc3cc(Cl)ncn3)ccc21 [Example 163, 5-(6-Chloro-pyrimidin-4-yloxy)-2,3-dihydro-indole-1-carboxylic acid (3-trifluoromethyl-phenyl)-amide]"
